Experimental findings from patent US7906507B2, “Oxadiazoanthracene compounds for the treatment of diabetes” (TransTech Pharma, Inc., priority 2008, dated 2011) are described below.

In this experiment the target is T1, cloned human GLP-1 receptor (Homo sapiens, UniProt P43220).
T1 construct: expressed in transfected cells; host or cells: CHO or HEK-293 cells
The experiment can be described thus: Functional cell-based assay: cAMP functional assay. To be noted: for Emax: 0.5 h, percentage relative to maximal GLP-1-induced cAMP accumulation, na = not active in the assay, read-out: % activation. The method, boiled down: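 Monolayer cells incubated 30 min at 37 °C with compounds (0.0001–100 μM) in IMDM containing 100 μM RO 20-1724 PDE inhibitor, 0.1% BSA and 2% DMSO. cAMP measured by HTRF.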
(In general: Cyclic AMP is a second messenger, typically raised through Gs and lowered through Gi signalling.)

What is called EC50 is the concentration that produces a half-maximal response. High values mean a need for much substance, low ones an effect from little substance.

T1 sequence (P43220 24-463): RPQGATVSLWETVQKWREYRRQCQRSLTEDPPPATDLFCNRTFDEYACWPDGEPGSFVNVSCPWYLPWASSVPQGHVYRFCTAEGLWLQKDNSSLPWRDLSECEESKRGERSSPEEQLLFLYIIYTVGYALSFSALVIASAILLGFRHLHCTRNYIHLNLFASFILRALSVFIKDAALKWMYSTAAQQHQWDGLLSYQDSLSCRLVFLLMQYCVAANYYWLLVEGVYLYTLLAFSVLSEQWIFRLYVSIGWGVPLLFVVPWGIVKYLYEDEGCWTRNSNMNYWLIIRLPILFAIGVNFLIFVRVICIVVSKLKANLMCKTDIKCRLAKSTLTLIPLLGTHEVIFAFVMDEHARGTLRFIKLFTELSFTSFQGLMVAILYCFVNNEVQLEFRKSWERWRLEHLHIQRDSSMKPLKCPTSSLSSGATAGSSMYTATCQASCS

Regarding `N#Cc1ccc(-c2ccc(C[C@H](NC(=O)[C@@H]3Cc4cc5c(cc4CN3S(=O)(=O)c3ccccc3[N+](=O)[O-])OC(c3ccc(OCc4ccc(Cl)c(Cl)c4)cc3)C(=O)N5)C(=O)O)cc2)cc1` (stereo partly drawn) [Example 51, (S)-3-(4′-Cyano-biphenyl-4-yl)-2-{[(S)-3-[4-(3,4-dichloro-benzyloxy)-phenyl]-6-(2-nitro-benzenesulfonyl)-2-oxo-2,3,5,6,7,8-hexahydro-1H-4-oxa-1,6-diaza-anthracene-7-carbonyl]-amino}-propionic acid], the EC50 turned out to be 820 nM and the Emax was 30%.

As to `N#Cc1ccc(-c2ccc(C[C@H](NC(=O)[C@@H]3Cc4cc5c(cc4CN3S(=O)(=O)c3cccc([N+](=O)[O-])c3)OC(c3ccc(OCc4ccc(Cl)c(Cl)c4)cc3)C(=O)N5)C(=O)O)cc2)cc1` (stereo partly drawn) [Example 52, (S)-3-(4′-Cyano-biphenyl-4-yl)-2-{[(S)-3-[4-(3,4-dichloro-benzyloxy)-phenyl]-6-(3-nitro-benzenesulfonyl)-2-oxo-2,3,5,6,7,8-hexahydro-1H-4-oxa-1,6-diaza-anthracene-7-carbonyl]-amino}-propionic acid], the EC50 came to 810 nM and the Emax came to 33%.

With `N#Cc1ccc(-c2ccc(C[C@H](NC(=O)[C@@H]3Cc4cc5c(cc4CN3Cc3ccccc3C#N)OC(c3ccc(OCc4ccc(Cl)c(Cl)c4)cc3)C(=O)N5)C(=O)O)cc2)cc1` (stereo partly drawn) [Example 53, (S)-2-({(S)-6-(2-Cyano-benzyl)-3-[4-(3,4-dichloro-benzyloxy)-phenyl]-2-oxo-2,3,5,6,7,8-hexahydro-1H-4-oxa-1,6-diaza-anthracene-7-carbonyl}-amino)-3-(4′-cyano-biphenyl-4-yl)-propionic acid], the EC50 amounted to 1040 nM and the Emax stood at 52.5%.

Take `N#Cc1ccc(-c2ccc(C[C@H](NC(=O)[C@@H]3Cc4cc5c(cc4CN3CC3CC3)OC(c3ccc(OCc4ccc(Cl)c(Cl)c4)cc3)C(=O)N5)C(=O)O)cc2)cc1` (stereo partly drawn) [Example 54, (S)-3-(4′-Cyano-biphenyl-4-yl)-2-({(S)-6cyclopropylmethyl-3-[4-(3,4-dichloro-benzyloxy)-phenyl]-2-oxo-2,3,5,6,7,8-hexahydro-1H-4-oxa-1,6-diaza-anthracene-7-carbonyl}-amino)-propionic acid]: the EC50 was 1080 nM and the Emax is 11.8%.

With `N#Cc1ccc(-c2ccc(C[C@H](NC(=O)[C@@H]3Cc4cc5c(cc4CN3CC#Cc3ncccn3)OC(c3ccc(OCc4ccc(Cl)c(Cl)c4)cc3)C(=O)N5)C(=O)O)cc2)cc1` (stereo partly drawn) [Example 55, (S)-3-(4′-Cyano-biphenyl-4-yl)-2-{[(S)-3-[4-(3,4-dichloro-benzyloxy)-phenyl]-2-oxo-6-(3-pyrimidin-2-yl-prop-2-ynyl)-2,3,5,6,7,8-hexahydro-1H-4-oxa-1,6-diaza-anthracene-7-carbonyl]-amino}-propionic acid], the midpoint of the response, the EC50, lay at 216 nM and the Emax was 49.4%.

Consider `N#Cc1ccc(-c2ccc(C[C@H](NC(=O)[C@@H]3Cc4cc5c(cc4CN3CC#Cc3ccsc3)OC(c3ccc(OCc4ccc(Cl)c(Cl)c4)cc3)C(=O)N5)C(=O)O)cc2)cc1` (stereo partly drawn) [Example 56, (S)-3-(4′-Cyano-biphenyl-4-yl)-2-{[(S)-3-[4-(3,4-dichloro-benzyloxy)-phenyl]-2-oxo-6-(3-thiophen-3-yl-prop-2-ynyl)-2,3,5,6,7,8-hexahydro-1H-4-oxa-1,6-diaza-anthracene-7-carbonyl]-amino}-propionic acid], for which the EC50 was found to be 370 nM and the Emax turned out to be 40.1%.

Consider `N#Cc1ccc(-c2ccc(C[C@H](NC(=O)[C@@H]3Cc4cc5c(cc4CN3C(=O)c3ccccc3)OC(c3ccc(OCc4c(Cl)cccc4Cl)cc3)C(=O)N5)C(=O)O)cc2)cc1` (stereo partly drawn) [Example 57, (S)-2-({(S)-6-Benzoyl-3-[4-(2,6-dichloro-benzyloxy)-phenyl]-2-oxo-2,3,5,6,7,8-hexahydro-1H-4-oxa-1,6-diaza-anthracene-7-carbonyl}-amino)-3-(4′-cyano-biphenyl-4-yl)-propionic acid], for which the half-maximal effective concentration (EC50) stood at 570 nM and the Emax is 20%.

Turning to `N#Cc1ccc(-c2ccc(C[C@H](NC(=O)[C@@H]3Cc4cc5c(cc4CN3C(=O)c3ccccc3)OC(c3ccc(OCc4cc(Cl)ccc4Cl)cc3)C(=O)N5)C(=O)O)cc2)cc1` (stereo partly drawn) [Example 58, (S)-2-({(S)-6-Benzoyl-3-[4-(2,5-dichloro-benzyloxy)-phenyl]-2-oxo-2,3,5,6,7,8-hexahydro-1H-4-oxa-1,6-diaza-anthracene-7-carbonyl}-amino)-3-(4′-cyano-biphenyl-4-yl)-propionic acid], the EC50 came out at 565 nM and the Emax is 45%.

For the compound `N#Cc1ccc(-c2ccc(C[C@H](NC(=O)[C@@H]3Cc4cc5c(cc4CN3C(=O)c3ccccc3)OC(c3ccc(OCc4cccc(Cl)c4)cc3)C(=O)N5)C(=O)O)cc2)cc1` (stereo partly drawn) [Example 59, (S)-2-({(S)-6-Benzoyl-3-[4-(3-chloro-benzyloxy)-phenyl]-2-oxo-2,3,5,6,7,8-hexahydro-1H-4-oxa-1,6-diaza-anthracene-7-carbonyl}-amino)-3-(4′-cyano-biphenyl-4-yl)-propionic acid], the response was half-maximal at 750 nM (EC50) and the Emax stood at 52%.

Regarding `N#Cc1ccc(-c2ccc(C[C@H](NC(=O)[C@@H]3Cc4cc5c(cc4CN3C(=O)c3ccccc3)OC(c3ccc(OCc4ccc(Cl)cc4)cc3)C(=O)N5)C(=O)O)cc2)cc1` (stereo partly drawn) [Example 60, (S)-2-({(S)-6-Benzoyl-3-[4-(4-chloro-benzyloxy)-phenyl]-2-oxo-2,3,5,6,7,8-hexahydro-1H-4-oxa-1,6-diaza-anthracene-7-carbonyl}-amino)-3-(4′-cyano-biphenyl-4-yl)-propionic acid], the EC50 came to 1630 nM and the Emax came to 62%.

On to `N#Cc1ccc(-c2ccc(C[C@H](NC(=O)[C@@H]3Cc4cc5c(cc4CN3C(=O)c3ccccc3)OC(c3ccc(OCc4ccc(Cl)c(C(F)(F)F)c4)cc3)C(=O)N5)C(=O)O)cc2)cc1` (stereo partly drawn) [Example 61, (S)-2-({(S)-6-Benzoyl-3-[4-(4-chloro-3-trifluoromethyl-benzyloxy)-phenyl]-2-oxo-2,3,5,6,7,8-hexahydro-1H-4-oxa-1,6-diaza-anthracene-7-carbonyl}-amino)-3-(4′-cyano-biphenyl-4-yl)-propionic acid], for which the EC50 was 850 nM and the Emax stood at 29%.

For the compound `COc1ccc(COc2ccc(C3Oc4cc5c(cc4NC3=O)C[C@@H](C(=O)N[C@@H](Cc3ccc(-c4ccc(C#N)cc4)cc3)C(=O)O)N(C(=O)c3ccccc3)C5)cc2)cc1C(F)(F)F` (stereo partly drawn) [Example 62, (S)-2-({(S)-6-Benzoyl-3-[4-(4-methoxy-3-trifluoromethyl-benzyloxy)-phenyl]-2-oxo-2,3,5,6,7,8-hexahydro-1H-4-oxa-1,6-diaza-anthracene-7-carbonyl}-amino)-3-(4′-cyano-biphenyl-4-yl)-propionic acid], the EC50 was 1000 nM and the Emax came to 15%.

In the case of `CC(C)(C)OC(=O)N1Cc2cc3c(cc2C[C@H]1C(=O)N[C@@H](Cc1ccc(-c2ccc(C#N)cc2)cc1)C(=O)O)NC(=O)C(c1ccc(OCc2cnc(Cl)c(Cl)c2)cc1)O3` (stereo partly drawn) [Example 63, (S)-7-[(S)-1-Carboxy-2-(4′-cyano-biphenyl-4-yl)-ethylcarbamoyl]-3-[4-(5,6-dichloro-pyridin-3-ylmethoxy)-phenyl]-2-oxo-1,2,3,5,7,8-hexahydro-4-oxa-1,6-diaza-anthracene-6-carboxylic acid tert-butyl ester], the midpoint of the response, the EC50, lay at 476 nM and the Emax was determined as 23%.

On to `N#Cc1ccc(-c2ccc(C[C@H](NC(=O)[C@@H]3Cc4cc5c(cc4CN3C(=O)c3ccccc3)OC(c3ccc(OCc4cnc(Cl)c(Cl)c4)cc3)C(=O)N5)C(=O)O)cc2)cc1` (stereo partly drawn) [Example 64, (S)-2-({(S)-6-Benzoyl-3-[4-(5,6-dichloro-pyridin-3-ylmethoxy)-phenyl]-2-oxo-2,3,5,6,7,8-hexahydro-1H-4-oxa-1,6-diaza-anthracene-7-carbonyl}-amino)-3-(4′-cyano-biphenyl-4-yl)-propionic acid], for which the EC50 was 190 nM and the Emax is 36%.

Regarding `N#Cc1ccc(-c2ccc(C[C@H](NC(=O)[C@@H]3Cc4cc5c(cc4CN3Cc3ccccc3)OC(c3ccc(OCc4cnc(Cl)c(Cl)c4)cc3)C(=O)N5)C(=O)O)cc2)cc1` (stereo partly drawn) [Example 65, (S)-2-({(8)-6-Benzyl-3-[4-(5,6-dichloro-pyridin-3-ylmethoxy)-phenyl]-2-oxo-2,3,5,6,7,8-hexahydro-1H-4-oxa-1,6-diaza-anthracene-7-carbonyl}-amino)-3-(4′-cyano-biphenyl-4-yl)-propionic acid], the concentration for a half-maximal effect (EC50) worked out at 220 nM and the Emax was 32%.

`N#Cc1ccc(-c2ccc(C[C@H](NC(=O)[C@@H]3Cc4cc5c(cc4CN3C(=O)c3cccs3)OC(c3ccc(OCc4cnc(Cl)c(Cl)c4)cc3)C(=O)N5)C(=O)O)cc2)cc1` (stereo partly drawn) [Example 66, (S)-3-(4′-Cyano-biphenyl-4-yl)-2-{[(S)-3-[4-(5,6-dichloro-pyridin-3-ylmethoxy)-phenyl]-2-oxo-6-(thiophene-2-carbonyl)-2,3,5,6,7,8-hexahydro-1H-4-oxa-1,6-diaza-anthracene-7-carbonyl]-amino}-propionic acid]: the EC50 was found to be 950 nM and the Emax came out at 21%.

For `N#Cc1ccc(-c2ccc(C[C@H](NC(=O)[C@@H]3Cc4cc5c(cc4CN3Cc3nccs3)OC(c3ccc(OCc4cccc(Cl)c4)cc3)C(=O)N5)C(=O)O)cc2)cc1` (stereo partly drawn) [Example 67, (S)-2-({(S)-3-[4-(3-Chloro-benzyloxy)-phenyl]-2-oxo-6-thiazol-2-ylmethyl-2,3,5,6,7,8-hexahydro-1H-4-oxa-1,6-diaza-anthracene-7-carbonyl}-amino)-3-(4′-cyano-biphenyl-4-yl)-propionic acid], the EC50 was 1150 nM and the Emax was 55%.
